From patent US7858084B2, “Methods of treatment with renalase (monoamine oxidase C)” (Yale University, priority 2005, dated 2010)
Like-named read-outs stand apart in the source and are kept apart here.

What was measured:
[1] = system: renalase
Procedure: Horizontal bars at top of figure indicate period of 5 minute epinephrine infusions.

[2] = biological target: renalase (Rattus norvegicus, UniProt Q5U2W9); conditions: CKD rats compared with control rats
Sequence of renalase (Rattus norvegicus, UniProt Q5U2W9) (Q5U2W9 18-315): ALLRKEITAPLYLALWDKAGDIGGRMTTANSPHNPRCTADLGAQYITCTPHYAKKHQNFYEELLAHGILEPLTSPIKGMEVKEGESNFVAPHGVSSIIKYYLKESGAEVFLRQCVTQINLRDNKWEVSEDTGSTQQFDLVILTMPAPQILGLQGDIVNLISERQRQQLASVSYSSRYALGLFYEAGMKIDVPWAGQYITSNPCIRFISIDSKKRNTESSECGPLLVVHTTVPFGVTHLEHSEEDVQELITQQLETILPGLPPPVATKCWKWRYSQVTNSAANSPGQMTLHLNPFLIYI

Q: Which “renalase protein levels in blood” value ([1]; second administration 30 minutes later) does the source give for `CNC[C@H](O)c1ccc(O)c(O)c1` [epinephrine] here?
A: only a modest decline

Q: What about the “renalase protein levels in blood” value ([1]; shortly after an initial infusion of epinephrine) of the same compound?
A: drop significantly

Q: What about the “renalase protein levels in blood” value ([1]; within ten minutes of the initial infusion) of the same compound?
A: recover and exceed initial protein levels

Q: What about the “magnitude and duration of blood renalase activation” value [2] of the same compound?
A: significantly lower
